The text below walks through data of patent US20140045873A1, “NOVEL MICROBIOCIDES” (SYNGENTA PARTICIPATIONS AG, priority 2010, published 2014).

Molecules are shown by their SMILES. Read-outs that look alike come from different tables or passages of the source.

For data set [1], the system named is Puccinia recondita f. sp. tritici. The following applies: in Triticum aestivum, foliar, read-out: control of Puccinia recondita f. sp. tritici (percent disease control compared to untreated).
Data set [2] has as its system Botryotinia fuckeliana (Botrytis cinerea). Kind of data set: Botryotinia fuckeliana (Botrytis cinerea) / liquid culture (gray mould). In kind it is cell-based. Particulars: Vogels broth, 24° C., 3-4 days after application, read-out: control of Botryotinia fuckeliana (inhibition of growth, photometric). The source says: Botryotinia Fuckeliana (Botrytis cinerea)/Liquid Culture (Gray Mould): Conidia of the fungus from cryogenic storage were directly mixed into nutrient broth (Vogels broth). […].45

The test system of data set [3] is Phaeosphaeria nodorum (Septoria nodorum). The following applies: Parastagonospora nodorum, in Triticum aestivum, foliar, read-out: control of Phaeosphaeria nodorum (percent disease control compared to untreated).
The next data set has as its system Pyrenophora teres. The following applies: in Hordeum vulgare, foliar, read-out: control of Pyrenophora teres (disease control compared to untreated).
The next data set deals with Gaeumannomyces graminis. Kind of data set: Gaeumannomyces graminis / liquid culture (take-all of cereals). The format is cell-based. Particulars: 200 ppm, liquid culture, PDB, 24° C., 4-5 days after application, read-out: control of Gaeumannomyces graminis (inhibition of growth, photometric).
The subject of data set [4] is Monographella nivalis (Microdochium nivale). Description: Monographella nivalis (Microdochium nivale) / liquid culture (foot rot cereals). The format is cell-based. The following applies: PDB, 24° C., 4-5 days after application, read-out: control of Monographella nivalis (inhibition of growth, photometric).
Data set [5] has as its system Mycosphaerella arachidis (Cercospora arachidicola). Description: Mycosphaerella arachidis (Cercospora arachidicola) / liquid culture (early leaf spot). In kind it is cell-based. Particulars: 200 ppm, liquid culture, PDB, 24° C., 4-5 days after application, read-out: control of Mycosphaerella arachidis (inhibition of growth, photometric).
Data set [6] concerns Mycosphaerella graminicola (Septoria tritici). Description: Mycosphaerella graminicola (Septoria tritici) / liquid culture (Septoria blotch). In kind it is cell-based. Particulars: Zymoseptoria tritici; 200 ppm, liquid culture, PDB, 24° C., 4-5 days after application; read-out: control of Mycosphaerella graminicola (inhibition of growth, photometric).
Data set [7] relates to Puccinia recondita f. sp. tritici. Particulars: in Triticum aestivum, foliar, read-out: control of Puccinia recondita f. sp. tritici (percent disease control compared to untreated). The source holds these as a separate data set.
The subject of data set [8] is Glomerella lagenarium (Colletotrichum lagenarium). Description: Glomerella lagenarium (Colletotrichum lagenarium) / liquid culture (anthracnose). The format is cell-based. The following applies: Colletotrichum orbiculare; 200 ppm, liquid culture, PDB, 24° C., 3-4 days after application; read-out: control of Glomerella lagenarium (inhibition of growth, photometric).
Another data set has as its system Alternaria solani. Description: Alternaria solani / tomato / leaf disc (early blight). The following applies: foliar, tomato leaf disks cv. Baby, inoculated 2 days after application, assessed 5-7 days after application, read-out: control of Alternaria solani (percent disease control compared to untreated). In kind it is in vivo. The method, then: The inoculated leaf disks were incubated at 23° C./21° C. […].44

A further data set has as its system Pythium ultimum. Description: Pythium ultimum / liquid culture (seedling damping off). In kind it is cell-based. The following applies: Globisporangium ultimum, potato dextrose broth, 24° C., 2-3 days after application, read-out: control of Pythium ultimum (inhibition of growth, photometric).
Data set [9] concerns Thanatephorus cucumeris (Rhizoctonia solani). The following applies: read-out: control of Thanatephorus cucumeris (inhibition of growth, photometric).

A word on the inhibition: it is the share of the control response that was lost under treatment. Take `COc1cc(C)nc(-c2cccc(CCCO/N=C(\C)c3cc(C)cc(C)n3)n2)c1` [P.13]: the pest or weed control at 200 ppm (in [1]; in [3]; in the data set on Pyrenophora teres; in data set [7]; with Alternaria solani) was ≥ 80% each time. Moreover, the inhibition at 200 ppm (in data set [2]; in the data set with Gaeumannomyces graminis; in [4]; in data set [5]; in data set [6]; in data set [8]) was ≥ 80% each time. Besides, the inhibition at 200 ppm with Pythium ultimum was ≥ 80%.

In general, melting point refers to the temperature of the solid-liquid transition. As to `CCc1cc(O)c(C)c(-c2cccc(CCCO/N=C(\C)c3cccc(C)n3)n2)n1` [P.32], the melting point lay in the range of 128 to 130 °C.

`C/C(=N\OCCCc1cccc(-c2cccc(C)n2)n1)c1cccc(C)n1` [P.21]: the pest or weed control at 200 ppm (in [1]; in data set [3]; in the data set on Pyrenophora teres; in data set [7]; in the data set on Alternaria solani) was ≥ 80% each time. The inhibition at 200 ppm (in data set [2]; with Gaeumannomyces graminis; in [5]; in data set [6]; in [8]; with Pythium ultimum) was ≥ 80% throughout.

With `COc1cc(C)nc(-c2cccc(CCCO/N=C(\C)c3nc(C)cc(C)n3)n2)c1` [P.44], the pest or weed control at 200 ppm (in data set [1]; in data set [3]; in the data set with Pyrenophora teres; in data set [7]; with Alternaria solani) was ≥ 80% in each case. Moreover, the inhibition at 200 ppm (in data set [9]; in data set [2]; in the data set on Gaeumannomyces graminis; in [4]; in data set [5]; in data set [6]) was ≥ 80% each time. Besides, the inhibition at 200 ppm (in data set [8]; in the data set on Pythium ultimum) was ≥ 80% each time.

For the molecule `CON=C(C)c1ccc(-c2cccc(CCCO/N=C(\C)c3cccc(C)n3)n2)nc1C` [P.22], the pest or weed control at 200 ppm (in [1]; in data set [3]; in the data set on Pyrenophora teres; in data set [7]; in the data set with Alternaria solani) was ≥ 80% each time. In addition, the inhibition at 200 ppm (in data set [2]; in the data set on Gaeumannomyces graminis; in [5]; in [6]; in data set [8]) was ≥ 80% each time.

For `C/C(=N\OCCCc1cccc(-c2cc(OC(C)C)cc(C)n2)n1)c1cccc(C)n1` [P.27], the pest or weed control at 200 ppm (in data set [1]; in data set [3]; in the data set with Pyrenophora teres; in data set [7]; in the data set on Alternaria solani) was ≥ 80% in each case. In addition, the inhibition at 200 ppm in [9], in [2], in [4], in [5], in [6] and in [8] was ≥ 80% each time. Moreover, in the data set on Pythium ultimum, the inhibition at 200 ppm is ≥ 80%.

As to `CCc1ccc(C)c(-c2cccc(CCCO/N=C(\C)c3cccc(C)n3)n2)n1` [P.42], the pest or weed control at 200 ppm (in [1]; in data set [3]; in the data set on Pyrenophora teres; in [7]; in the data set with Alternaria solani) was ≥ 80% throughout. Moreover, the inhibition at 200 ppm (in data set [9]; in data set [2]; in the data set on Gaeumannomyces graminis; in data set [4]; in [5]; in data set [6]) was ≥ 80% each time. The inhibition at 200 ppm in data set [8] is ≥ 80%.

Regarding `C/C(=N\OCCCc1cccc(-c2cc(Cl)cc(C)n2)n1)c1cccc(C)n1` [P.16, 1-(6-methyl-pyridin-2-yl)-ethanone-O-[3-(4′-chloro-6′-methyl-[2,2′]bipyridinyl-6-yl)-propyl]-oxime], the melting point lay in the range of 53 to 54 °C. The pest or weed control at 200 ppm in [1] was ≥ 80%. For the same molecule, in [9], the inhibition at 200 ppm was ≥ 80%. Besides, in [2], the inhibition at 200 ppm is ≥ 80%. Moreover, in [3], the pest or weed control at 200 ppm is ≥ 80%. Besides, the pest or weed control at 200 ppm in the data set on Pyrenophora teres is ≥ 80%. In the data set with Gaeumannomyces graminis, the inhibition at 200 ppm is ≥ 80%. In [5], the inhibition at 200 ppm was ≥ 80%. The inhibition at 200 ppm in data set [6] was ≥ 80%. In addition, the pest or weed control at 200 ppm in [7] was ≥ 80%. Moreover, in data set [8], the inhibition at 200 ppm is ≥ 80%.

`CCOc1cc(C)nc(-c2cccc(CCCO/N=C(\C)c3cccc(C)n3)n2)c1` [P.12]: the pest or weed control at 200 ppm (in [1]; in data set [3]; in the data set on Pyrenophora teres; in [7]; in the data set with Alternaria solani) was ≥ 80% in each case. Also, the inhibition at 200 ppm (in [9]; in data set [2]; in data set [4]; in data set [5]; in data set [8]; with Pythium ultimum) was ≥ 80% each time.

`COc1cc(C)nc(-c2cccc(CCCO/N=C(\C)c3cccc(C)n3)n2)c1` [P.11, 1-(6-methyl-pyridin-2-yl)-ethanone-O-[3-(4′-methoxy-6′-methyl-[2,2]bipyridinyl-6-yl)-propyl]-oxime]: the melting point lay in the range of 84 to 86 °C. For the same molecule, the pest or weed control at 200 ppm in data set [1] is ≥ 80%. For the same molecule, the inhibition at 200 ppm in [9] was ≥ 80%. Also, the inhibition at 200 ppm in [2] was ≥ 80%. Further, the pest or weed control at 200 ppm in data set [3] is ≥ 80%. The pest or weed control at 200 ppm with Pyrenophora teres was ≥ 80%. Besides, the inhibition at 200 ppm in the data set with Gaeumannomyces graminis is ≥ 80%. In addition, the inhibition at 200 ppm in data set [4] is ≥ 80%. Also, the inhibition at 200 ppm in [5] is ≥ 80%. Further, the inhibition at 200 ppm in data set [6] is ≥ 80%. Besides, in data set [7], the pest or weed control at 200 ppm was ≥ 80%. For the same molecule, the inhibition at 200 ppm in data set [8] is ≥ 80%.

With `C#CCOc1cc(C)nc(-c2cccc(CCCO/N=C(\C)c3cc(C)cc(C)n3)n2)c1` [P.29], the pest or weed control at 200 ppm (in [1]; in data set [3]; with Pyrenophora teres; in data set [7]; in the data set with Alternaria solani) was ≥ 80% each time. Besides, the inhibition at 200 ppm (in [9]; in [2]; in the data set on Gaeumannomyces graminis; in data set [4]; in data set [5]; in data set [6]) was ≥ 80% throughout. Also, the inhibition at 200 ppm in data set [8] is ≥ 80%.

On to `CCOc1cc(C)nc(-c2cccc(CCCO/N=C(\C)c3cc(C)cc(C)n3)n2)c1` [P.28], for which the pest or weed control at 200 ppm (in data set [1]; in data set [3]; in the data set on Pyrenophora teres; in [7]) was ≥ 80% each time. Moreover, the inhibition at 200 ppm (in data set [9]; in data set [2]; in the data set on Gaeumannomyces graminis; in data set [4]; in [5]; in [6]) was ≥ 80% in each case. In addition, the inhibition at 200 ppm (in data set [8]; in the data set with Pythium ultimum) was ≥ 80% throughout.
